From patent publication US5756491A, “Antiviral cobalt-organic compounds” (priority 1991, dated 1998)

Experiments:
[1] = system: human foreskin fibroblast (HFF) cell monolayers; assay: Toxicity effects controls: sham-inoculated compound-treated HFF monolayers; format: cell-based; details: Experiment 5 (Table 13); further: key: +: toxic; -: no toxicity; ±: mild toxicity; T: toxicity effects interfered with CPE rating
Description: (§1) With sufficient stirring, all the compounds completely dissolved.
In the tables, the symbols have the meaning indicated: […]

[2] = system: HSV-1 McKrae Strain; assay: Direct virucidal efficacy against HSV-1 on HFF monolayers; format: cell-based; details: for virucidal efficacy (HSV-1 titer): Experiment 5 (Table 12), 24 h PI
Experimental: HSV-1 McKrae Strain was diluted to a final concentration of 10^5 PFU/ml in minimal essential medium (MEM). Hereinafter, this dilution is referred to as the HSV-1 Suspension for convenience.
as §1
Each of the drug solutions were mixed with the HSV-1 Suspension in a 1:1 ratio. The drug and HSV-1 Suspension mixture was incubated at 37° C. for thirty minutes with agitation every ten minutes. After the incubation, fifty microliter aliquots were overlaid onto triplicate confluent human foreskin fibroblast (HFF) cell monolayers. The inoculum was absorbed for thirty minutes and then a medium containing the appropriate drug concentration in MEM was added to the monolayers to a final volume of 0.5 milliliters per culture-well. The monolayers were incubated at 37° C. The developing HSV-1 Cytopathology was monitored daily for two days by inverted light microscopy. Titers were calculated by multiple regression analysis. All data is presented as the average PFU/ml reduction at 24 and/or 48 hours after inoculation (PI).
1. HSV-1 inoculated, non-compound treated HFF monolayers were included as "positive controls"; and […]

CC([O-])=CC(C)=NCCN=C(C)C=C(C)[O-].Cc1cnc[nH]1.Cc1cnc[nH]1.[Br-].[Co+3] [Compound 97]
toxicity effects ([1]; 24 h, 0.00 mg/ml (so in the source)): -
toxicity effects ([1]; 24 h, 0.01 mg/ml): -
toxicity effects ([1]; 24 h, 0.5 mg/ml): -
toxicity effects ([1]; 48 h, 0.00 mg/ml (so in the source)): -
toxicity effects ([1]; 48 h, 0.01 mg/ml): -
toxicity effects ([1]; 48 h, 0.5 mg/ml): -
toxicity effects ([1]; 48 h, 5 mg/ml): +
virucidal efficacy (HSV-1 titer) ([2]; Run 1, 0.0001 mg/ml): 10^5 PFU/ml
virucidal efficacy (HSV-1 titer) ([2]; Run 1, 0.001 mg/ml): 10^5 PFU/ml
virucidal efficacy (HSV-1 titer) ([2]; Run 1, 0.01 mg/ml): 10^4 PFU/ml
virucidal efficacy (HSV-1 titer) ([2]; Run 1, 0.1 mg/ml): 10^1 PFU/ml
virucidal efficacy (HSV-1 titer) ([2]; Run 1, 1 mg/ml): 0 PFU/ml
virucidal efficacy (HSV-1 titer) ([2]; Run 1, 5 mg/ml): 0 PFU/ml
virucidal efficacy (HSV-1 titer) ([2]; Run 2, 0.001 mg/ml): 10^4 PFU/ml
virucidal efficacy (HSV-1 titer) ([2]; Run 2, 0.01 mg/ml): 10^1 PFU/ml
virucidal efficacy (HSV-1 titer) ([2]; Run 2, 0.1 mg/ml): 0 PFU/ml
virucidal efficacy (HSV-1 titer) ([2]; Run 2, 1 mg/ml): 0 PFU/ml
virucidal efficacy (HSV-1 titer) ([2]; Run 2, 5 mg/ml): 0 PFU/ml
effective virucidal concentration IC50 ([2]; Experiment 5 (Table 14), HSV-1): 0.1-.1 mg/ml
effective virucidal concentration IC90 ([2]; Experiment 5 (Table 14), HSV-1): 100 to 1000 µg/mL
